pIC50: −log10 of the molar value.
Columns and labels:
SARS-COV-2 = test: microbe, parasite or virus in culture; assay type: cell-based; conditions: Severe acute respiratory syndrome coronavirus 2, 72 h, read-out: ID50 (Antiviral Data)
SARS-COV-2 3CLpro = SARS-COV-2 3CLpro (Severe acute respiratory syndrome coronavirus 2, UniProt P0DTD1); test: biochemical

SMILES | pIC50 (SARS-COV-2) | pIC50 (SARS-COV-2 3CLpro)
CC(C)C[C@H](NC(=O)OCc1ccccc1)C(=O)N[C@H](C#N)C[C@@H]1CCCNC1=O | 5.00 to 6.00 | 6.00 to 10.00
C=CCN(C(=O)c1cc2c(OC)cccc2[nH]1)[C@@H](CC(C)C)C(=O)N[C@H](C#N)C[C@@H]1CCNC1=O | < 4.00 | 6.00 to 10.00
CC(C)C[C@@H](C(=O)N[C@H](C#N)C[C@@H]1CCNC1=O)N(C)C(=O)[C@@H](NC(=O)C(F)(F)F)C(C)C | 4.00 to 5.00 | 5.00 to 6.00
COc1cccc2[nH]c(C(=O)N[C@@H](CC(C)C)C(=O)N[C@H](C#N)C[C@@H]3CCCNC3=O)cc12 | 4.00 to 5.00 | 5.00 to 6.00
CC(C)C[C@H](NC(=O)OCc1ccccn1)C(=O)N[C@H](C#N)C[C@@H]1CCCNC1=O | < 4.00 | 6.00 to 10.00
CC(C)C[C@H](NC(=O)OCc1cccnc1)C(=O)N[C@H](C#N)C[C@@H]1CCCNC1=O | < 4.00 | 6.00 to 10.00
COc1cccc2[nH]c(C(=O)N(C)[C@@H](CC(C)C)C(=O)N[C@H](C#N)C[C@@H]3CCNC3=O)cc12 | < 4.00 | 6.00 to 10.00
CC(C)C[C@H](NC(=O)OCc1ccncc1)C(=O)N[C@H](C#N)C[C@@H]1CCCNC1=O | < 4.00 | 6.00 to 10.00
CC(C)C[C@H](NC(=O)OCc1ccncc1)C(=O)N[C@H](C#N)C[C@@H]1CCNC1=O | < 4.00 | 6.00 to 10.00
CC(C)C[C@@H](C(=O)N[C@H](C#N)C[C@@H]1CCNC1=O)N(C)C(=O)[C@@H](NC(=O)C(F)(F)F)C(C)(C)C | 4.00 to 5.00 | 6.00 to 10.00

— US12466792B2 (priority 2021, dated 2025)
